Measured values published in patent US8415469B2, “Compounds and methods for kinase modulation, and indications therefor” (Plexxikon Inc., priority 2005, dated 2013).

Columns and labels:
Format in all cases: biochemical
Ret = molecular target: T1, Ret (Homo sapiens, UniProt P07949); assay: AlphaScreen kinase assay, Ret; settings: read-out: IC50, activity toward kinase Ret
T1 construct: P1378.pET-SF BI-PTP RET H661-R1012 HIS; made in house
T1 sequence (P07949 with tags, fused parts or gaps): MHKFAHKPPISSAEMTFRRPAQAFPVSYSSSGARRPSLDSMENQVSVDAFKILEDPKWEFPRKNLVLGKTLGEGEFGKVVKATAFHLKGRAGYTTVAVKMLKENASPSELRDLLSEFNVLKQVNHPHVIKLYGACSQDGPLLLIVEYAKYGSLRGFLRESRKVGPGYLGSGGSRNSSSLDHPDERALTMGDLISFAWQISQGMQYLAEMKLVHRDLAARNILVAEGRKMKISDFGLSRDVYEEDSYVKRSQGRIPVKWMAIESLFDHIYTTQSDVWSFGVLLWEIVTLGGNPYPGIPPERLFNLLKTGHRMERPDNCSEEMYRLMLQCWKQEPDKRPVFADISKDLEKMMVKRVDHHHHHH

Btk = molecular target: T2, Btk (Homo sapiens, UniProt Q06187); assay: Z'-Lyte FRET kinase assay (Invitrogen), Btk; settings: read-out: IC50, activity toward kinase Btk
T2 construct: purchased Invitrogen (assay run by Invitrogen)

Stk6 = molecular target: T3, Stk6 (Homo sapiens, UniProt O14965); assay: Z'-Lyte FRET kinase assay (Invitrogen), Stk6; settings: read-out: IC50, activity toward kinase Stk6
T3 construct: purchased Invitrogen (Carlsbad, Calif.), screening service
T3 sequence (O14965 1-403): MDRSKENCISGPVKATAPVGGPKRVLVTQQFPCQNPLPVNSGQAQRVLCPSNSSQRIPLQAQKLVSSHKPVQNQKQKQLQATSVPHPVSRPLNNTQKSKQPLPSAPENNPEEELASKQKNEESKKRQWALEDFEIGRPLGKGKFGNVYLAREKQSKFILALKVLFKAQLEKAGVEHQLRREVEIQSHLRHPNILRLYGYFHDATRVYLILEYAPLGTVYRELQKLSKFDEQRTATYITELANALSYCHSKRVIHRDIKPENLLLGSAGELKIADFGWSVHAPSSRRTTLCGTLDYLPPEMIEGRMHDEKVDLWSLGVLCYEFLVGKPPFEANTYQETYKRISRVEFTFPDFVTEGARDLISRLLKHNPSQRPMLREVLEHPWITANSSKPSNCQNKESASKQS

Gsk3β = Gsk3β (Homo sapiens, UniProt P49841); assay: AlphaScreen kinase assay, Gsk3β; settings: read-out: IC50, activity toward kinase Gsk3β
Excerpt: AlphaScreen assay was used to screen additional kinases. The assay is similarly dependent on the phosphorylation of a peptide substrate. In this assay, an antibody that recognizes phosphorylated substrate is bound to an acceptor bead. The peptide substrate is attached to biotin, which binds to a donor head that contains streptavidin. Thus phosphorylated substrate is bound by antibody and streptavidin, bringing the donor and acceptor heads into close proximity when kinase is not inhibited. The donor produces singlet oxygen which results in emission from the acceptor when they are in close proximity. Conversely, when kinase is inhibited, the donor and acceptor beads are not associated and the emission from the acceptor is reduced.
AlphaScreen assays were done using compounds dissolved in DMSO to a concentration of 20 mM. The compounds were diluted accordingly to the desired final concentrations in each sample well, using 1:3 serial dilution for a total of 8 concentration points.

Kdr = molecular target: T4, Kdr (Homo sapiens, UniProt P35968); assay: Z'-Lyte FRET kinase assay (Invitrogen), Kdr; settings: read-out: IC50, activity toward kinase Kdr
T4 construct: purchased Invitrogen (assay run by Invitrogen)

Abl = molecular target: T5, Abl (Homo sapiens, UniProt P00519); assay: AlphaScreen kinase assay, Abl; settings: read-out: activity toward kinase Abl, IC50
T5 construct: P1121. pET-SPEC BI-PTP Abl G227-V515-X; His6 (N); made in house; host or cells: E. coli (PTP1B co-expressed)
T5 sequence (P00519 with tags, fused parts or gaps): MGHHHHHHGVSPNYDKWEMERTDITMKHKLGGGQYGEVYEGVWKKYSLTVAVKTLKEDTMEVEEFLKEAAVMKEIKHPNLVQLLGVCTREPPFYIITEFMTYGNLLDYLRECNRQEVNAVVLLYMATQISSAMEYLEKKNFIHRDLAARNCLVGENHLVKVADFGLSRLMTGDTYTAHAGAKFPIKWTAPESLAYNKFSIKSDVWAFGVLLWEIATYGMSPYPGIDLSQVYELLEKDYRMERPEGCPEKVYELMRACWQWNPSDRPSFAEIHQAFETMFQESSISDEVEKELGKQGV
Summary of the method: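 Eight concentrations per compound (1:3 serial dilution of 20 mM DMSO stock) were tested. Read-out: AlphaScreen signal from phospho-antibody acceptor and streptavidin donor beads bound to biotinylated peptide substrate, reduced on kinase inhibition.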

B-Raf V600E = molecular target: T6, B-Raf V600E (Homo sapiens, UniProt P15056, V600E); assay: AlphaScreen kinase assay, B-Raf V600E; settings: read-out: IC50, activity toward kinase B-Raf V600E
T6 construct: P4254. pFastBacBD-CDC37 BRAF D437-K722-X, V600E; His6 with pFastBac HT leader (TEV site) (N); made in house; host or cells: Sf9 (baculovirus; chaperone CDC37 co-expressed)

Jnk1 = molecular target: T7, Jnk1 (Homo sapiens, UniProt P45983); assay: AlphaScreen kinase assay, Jnk1; settings: read-out: IC50, activity toward kinase Jnk1
T7 construct: purchased Upstate Biotechnology

Pyk2 = molecular target: T8, Pyk2 (Homo sapiens, UniProt Q14289); assay: AlphaScreen kinase assay, Pyk2; settings: read-out: IC50, activity toward kinase Pyk2
T8 construct: purchased Upstate Biotechnology

B-Raf = molecular target: T9, B-Raf (Homo sapiens, UniProt P15056); assay: AlphaScreen kinase assay, B-Raf; settings: read-out: IC50, activity toward kinase B-Raf
T9 construct: purchased Upstate Biotechnology

FGFR1 = molecular target: T10, FGFR1 (Homo sapiens, UniProt P11362, C488A/C584S); assay: AlphaScreen kinase assay, FGFR1; settings: read-out: IC50, activity toward kinase FGFR
T10 construct: P1351.pET N6 BI-PTP FGFR A458-E765-X C488A, C584S; made in house; host or cells: E. coli (PTP1B co-expressed)

MAP4K4 = MAP4K4 (Homo sapiens, UniProt O95819); assay: AlphaScreen kinase assay, MAP4K4; settings: read-out: IC50, activity toward kinase MAP4K4
Experimental: AlphaScreen assays were done using compounds dissolved in DMSO to a concentration of 20 mM. The compounds were diluted accordingly to the desired final concentrations in each sample well, using 1:3 serial dilution for a total of 8 concentration points. Plates were prepared such that each kinase reaction is 20 μl in 1× kinase buffer, 5% DMSO and 10 μM ATP. After incubation of the kinase reaction for 1 hour at room temperature, 5 μl of donor beads in stop buffer (50 mM EDTA in 1× kinase buffer) was added, the sample was mixed and incubated for 20 minutes at room temperature before adding 5 μl of acceptor beads in stop buffer. The samples were incubated for 60 minutes at room temperature and the signal per well was read on AlphaQuest reader.

c-Raf-1 = molecular target: T11, c-Raf-1 (Homo sapiens, UniProt P04049); assay: AlphaScreen kinase assay, c-Raf-1; settings: read-out: IC50, activity toward kinase c-Raf-1
T11 construct: purchased Upstate Biotechnology

Fms = molecular target: T12, Fms (Homo sapiens, UniProt P07333); assay: AlphaScreen kinase assay, Fms; settings: read-out: IC50, activity toward kinase Fms
T12 construct: purchased Upstate Biotechnology

Kit = molecular target: T13, Kit (Homo sapiens, UniProt P10721); assay: AlphaScreen kinase assay, Kit; settings: read-out: IC50, activity toward kinase Kit
T13 construct: P1332.N6 BI PTP KIT M552-K948-X COD; His6 (N); made in house; host or cells: E. coli (PTP1B co-expressed)

Jnk3 = molecular target: T14, Jnk3 (Homo sapiens, UniProt P53779); assay: AlphaScreen kinase assay, Jnk3; settings: read-out: IC50, activity toward kinase Jnk3
T14 construct: purchased Upstate Biotechnology

Fak = molecular target: T15, Fak (Homo sapiens, UniProt Q05397); assay: AlphaScreen kinase assay, Fak; settings: read-out: IC50, activity toward kinase Fak
T15 construct: P1358.pFastBacHtb FAK S411-Q686-X; His6 with pFastBacHTb leader (TEV site) (N); made in house; host or cells: Sf9 (baculovirus)

Flt1 = molecular target: T16, Flt1 (Homo sapiens, UniProt P17948); assay: AlphaScreen kinase assay, Flt1; settings: read-out: IC50, activity toward kinase Flt1
T16 construct: P1826.pETN6 BI-PTP FLT1 M799-D1165-X WT; His6 (N); made in house; host or cells: E. coli (PTP1B co-expressed)
T16 sequence (P17948 with tags, fused parts or gaps): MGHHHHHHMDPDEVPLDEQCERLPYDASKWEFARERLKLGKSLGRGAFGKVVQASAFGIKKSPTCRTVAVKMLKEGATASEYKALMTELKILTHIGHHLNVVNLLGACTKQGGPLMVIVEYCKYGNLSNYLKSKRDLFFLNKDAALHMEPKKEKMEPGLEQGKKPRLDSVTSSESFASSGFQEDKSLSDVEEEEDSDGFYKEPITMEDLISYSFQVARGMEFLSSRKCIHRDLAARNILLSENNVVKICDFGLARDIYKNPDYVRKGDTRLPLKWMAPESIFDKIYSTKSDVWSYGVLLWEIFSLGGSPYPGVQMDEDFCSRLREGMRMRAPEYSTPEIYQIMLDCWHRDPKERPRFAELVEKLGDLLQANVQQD

Src = molecular target: T17, Src (Homo sapiens, UniProt P12931); assay: AlphaScreen kinase assay, Src; settings: read-out: IC50, activity toward kinase Src
T17 construct: P1144. pET-N6 BI-PTP SRC V86-L536-X; made in house

Measured: IC50

MAP4K4, sequence (O95819 whole entry): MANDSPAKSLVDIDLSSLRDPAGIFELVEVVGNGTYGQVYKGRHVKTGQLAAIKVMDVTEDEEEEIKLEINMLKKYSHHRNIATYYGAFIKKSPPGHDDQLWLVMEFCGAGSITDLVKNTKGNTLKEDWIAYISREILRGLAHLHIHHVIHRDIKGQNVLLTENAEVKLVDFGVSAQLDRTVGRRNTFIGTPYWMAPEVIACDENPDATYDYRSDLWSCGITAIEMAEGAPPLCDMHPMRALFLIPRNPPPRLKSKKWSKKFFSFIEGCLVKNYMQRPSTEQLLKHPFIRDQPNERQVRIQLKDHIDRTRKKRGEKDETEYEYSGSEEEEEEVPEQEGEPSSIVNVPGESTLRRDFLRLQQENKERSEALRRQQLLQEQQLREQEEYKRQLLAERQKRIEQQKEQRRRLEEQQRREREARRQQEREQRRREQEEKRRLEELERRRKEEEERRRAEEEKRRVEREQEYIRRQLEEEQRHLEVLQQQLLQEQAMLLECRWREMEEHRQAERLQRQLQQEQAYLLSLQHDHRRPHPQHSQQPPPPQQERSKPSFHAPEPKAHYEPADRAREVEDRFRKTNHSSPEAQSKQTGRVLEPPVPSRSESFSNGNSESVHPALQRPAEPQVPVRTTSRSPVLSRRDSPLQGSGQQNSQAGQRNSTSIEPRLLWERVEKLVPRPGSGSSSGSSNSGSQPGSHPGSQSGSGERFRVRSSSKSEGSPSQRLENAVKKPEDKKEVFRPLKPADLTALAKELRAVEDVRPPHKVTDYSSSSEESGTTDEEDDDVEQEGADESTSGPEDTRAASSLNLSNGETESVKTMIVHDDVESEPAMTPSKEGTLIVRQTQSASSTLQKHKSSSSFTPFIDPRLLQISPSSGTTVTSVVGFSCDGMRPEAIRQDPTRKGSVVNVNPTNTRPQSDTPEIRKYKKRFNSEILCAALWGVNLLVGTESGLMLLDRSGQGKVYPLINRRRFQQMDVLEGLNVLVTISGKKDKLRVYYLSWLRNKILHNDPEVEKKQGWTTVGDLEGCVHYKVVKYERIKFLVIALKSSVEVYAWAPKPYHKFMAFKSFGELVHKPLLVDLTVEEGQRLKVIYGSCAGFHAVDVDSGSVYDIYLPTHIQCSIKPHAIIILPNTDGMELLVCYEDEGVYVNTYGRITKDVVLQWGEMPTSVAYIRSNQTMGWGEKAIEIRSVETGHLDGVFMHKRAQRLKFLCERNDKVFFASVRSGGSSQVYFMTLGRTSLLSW
T13 sequence (P10721 with tags, fused parts or gaps): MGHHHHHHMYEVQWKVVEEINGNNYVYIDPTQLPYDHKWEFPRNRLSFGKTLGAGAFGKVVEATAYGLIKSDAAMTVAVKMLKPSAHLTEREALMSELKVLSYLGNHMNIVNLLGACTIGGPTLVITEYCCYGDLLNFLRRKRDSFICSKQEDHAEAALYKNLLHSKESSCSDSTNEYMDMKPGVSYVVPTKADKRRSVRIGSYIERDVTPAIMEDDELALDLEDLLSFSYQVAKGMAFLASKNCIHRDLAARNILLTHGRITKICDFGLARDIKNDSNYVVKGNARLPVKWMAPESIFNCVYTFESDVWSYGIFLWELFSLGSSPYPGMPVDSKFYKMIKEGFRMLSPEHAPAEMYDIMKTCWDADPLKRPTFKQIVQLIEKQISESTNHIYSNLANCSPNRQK
T12 sequence (P07333 20-972): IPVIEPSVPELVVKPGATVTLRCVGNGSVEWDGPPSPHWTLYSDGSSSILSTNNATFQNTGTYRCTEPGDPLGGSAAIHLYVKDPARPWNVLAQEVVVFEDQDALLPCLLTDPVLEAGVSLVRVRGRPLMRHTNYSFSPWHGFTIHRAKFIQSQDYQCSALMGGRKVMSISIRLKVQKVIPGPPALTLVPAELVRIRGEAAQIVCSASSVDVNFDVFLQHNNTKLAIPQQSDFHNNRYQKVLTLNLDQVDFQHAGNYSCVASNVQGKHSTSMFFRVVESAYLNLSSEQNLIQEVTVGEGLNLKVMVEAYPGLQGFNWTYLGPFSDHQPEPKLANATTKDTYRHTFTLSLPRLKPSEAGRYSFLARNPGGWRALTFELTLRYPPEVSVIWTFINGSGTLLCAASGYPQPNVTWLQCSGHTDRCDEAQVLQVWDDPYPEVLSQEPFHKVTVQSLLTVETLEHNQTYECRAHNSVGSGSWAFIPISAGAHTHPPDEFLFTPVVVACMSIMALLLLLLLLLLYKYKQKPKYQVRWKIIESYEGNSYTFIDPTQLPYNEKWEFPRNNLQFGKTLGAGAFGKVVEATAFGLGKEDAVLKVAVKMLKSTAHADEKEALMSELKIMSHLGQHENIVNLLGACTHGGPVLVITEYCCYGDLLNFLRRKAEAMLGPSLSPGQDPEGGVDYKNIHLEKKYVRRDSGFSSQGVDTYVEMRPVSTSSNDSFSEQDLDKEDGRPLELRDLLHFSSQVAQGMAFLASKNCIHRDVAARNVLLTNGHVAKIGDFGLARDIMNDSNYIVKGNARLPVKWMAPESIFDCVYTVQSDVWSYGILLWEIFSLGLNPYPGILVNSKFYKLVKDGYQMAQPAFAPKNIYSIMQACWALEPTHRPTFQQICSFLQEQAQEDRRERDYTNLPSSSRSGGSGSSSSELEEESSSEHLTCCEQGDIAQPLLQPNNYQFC
T6 sequence (P15056 with tags, fused parts or gaps V600E): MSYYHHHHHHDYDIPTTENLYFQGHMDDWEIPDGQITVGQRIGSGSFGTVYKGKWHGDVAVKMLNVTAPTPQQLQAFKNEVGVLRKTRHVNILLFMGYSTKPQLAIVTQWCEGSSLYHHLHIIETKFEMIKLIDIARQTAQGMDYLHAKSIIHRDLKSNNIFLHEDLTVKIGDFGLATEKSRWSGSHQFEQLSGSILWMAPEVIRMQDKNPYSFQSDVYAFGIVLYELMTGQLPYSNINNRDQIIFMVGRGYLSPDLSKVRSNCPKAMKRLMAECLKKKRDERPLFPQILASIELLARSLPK
T9 sequence (P15056 whole entry): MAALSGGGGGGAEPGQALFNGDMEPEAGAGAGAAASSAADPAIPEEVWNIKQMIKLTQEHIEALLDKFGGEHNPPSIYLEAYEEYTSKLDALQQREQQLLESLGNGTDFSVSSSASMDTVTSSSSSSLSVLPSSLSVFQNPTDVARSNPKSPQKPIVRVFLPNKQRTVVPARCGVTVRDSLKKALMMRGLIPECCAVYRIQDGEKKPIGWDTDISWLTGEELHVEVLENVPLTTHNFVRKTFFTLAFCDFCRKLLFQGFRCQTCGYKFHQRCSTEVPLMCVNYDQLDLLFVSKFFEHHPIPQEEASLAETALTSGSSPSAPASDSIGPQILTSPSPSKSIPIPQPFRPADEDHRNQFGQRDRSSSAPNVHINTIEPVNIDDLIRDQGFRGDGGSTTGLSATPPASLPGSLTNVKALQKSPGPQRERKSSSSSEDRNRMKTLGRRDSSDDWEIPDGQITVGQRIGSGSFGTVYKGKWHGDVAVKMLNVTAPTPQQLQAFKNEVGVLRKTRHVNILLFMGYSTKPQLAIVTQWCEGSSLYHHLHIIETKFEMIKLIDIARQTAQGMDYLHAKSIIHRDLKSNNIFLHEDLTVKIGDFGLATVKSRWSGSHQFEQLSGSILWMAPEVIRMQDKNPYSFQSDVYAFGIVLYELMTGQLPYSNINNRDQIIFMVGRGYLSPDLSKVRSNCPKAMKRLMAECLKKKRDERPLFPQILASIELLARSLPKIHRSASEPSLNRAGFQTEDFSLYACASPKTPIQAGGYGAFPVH
T8 sequence (Q14289 whole entry): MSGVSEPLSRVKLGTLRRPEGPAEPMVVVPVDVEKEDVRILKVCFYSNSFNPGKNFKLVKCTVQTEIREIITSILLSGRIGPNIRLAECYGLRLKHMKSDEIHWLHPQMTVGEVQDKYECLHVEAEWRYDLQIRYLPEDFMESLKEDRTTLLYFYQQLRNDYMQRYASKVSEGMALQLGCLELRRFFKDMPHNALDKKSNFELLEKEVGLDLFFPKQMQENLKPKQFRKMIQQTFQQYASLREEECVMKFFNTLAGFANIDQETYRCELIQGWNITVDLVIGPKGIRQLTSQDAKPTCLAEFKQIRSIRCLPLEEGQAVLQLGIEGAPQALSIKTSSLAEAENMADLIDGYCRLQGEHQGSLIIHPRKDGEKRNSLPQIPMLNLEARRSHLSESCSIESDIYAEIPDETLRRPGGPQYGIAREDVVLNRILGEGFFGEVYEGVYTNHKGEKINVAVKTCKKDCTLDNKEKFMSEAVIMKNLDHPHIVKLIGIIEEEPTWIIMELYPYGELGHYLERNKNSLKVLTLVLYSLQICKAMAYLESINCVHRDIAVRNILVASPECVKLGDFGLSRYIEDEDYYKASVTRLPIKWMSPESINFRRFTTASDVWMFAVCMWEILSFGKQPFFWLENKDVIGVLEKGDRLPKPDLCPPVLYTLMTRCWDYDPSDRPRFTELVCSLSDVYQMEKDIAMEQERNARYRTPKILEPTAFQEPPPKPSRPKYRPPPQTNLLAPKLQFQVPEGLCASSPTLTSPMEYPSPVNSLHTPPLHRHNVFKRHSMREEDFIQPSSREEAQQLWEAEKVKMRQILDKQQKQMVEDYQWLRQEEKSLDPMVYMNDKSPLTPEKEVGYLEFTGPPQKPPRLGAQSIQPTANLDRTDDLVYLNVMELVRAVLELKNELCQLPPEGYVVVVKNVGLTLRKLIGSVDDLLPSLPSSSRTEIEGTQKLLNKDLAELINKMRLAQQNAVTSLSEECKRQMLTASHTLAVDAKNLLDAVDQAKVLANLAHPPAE
T10 sequence (P11362 458-765 C488A/C584S): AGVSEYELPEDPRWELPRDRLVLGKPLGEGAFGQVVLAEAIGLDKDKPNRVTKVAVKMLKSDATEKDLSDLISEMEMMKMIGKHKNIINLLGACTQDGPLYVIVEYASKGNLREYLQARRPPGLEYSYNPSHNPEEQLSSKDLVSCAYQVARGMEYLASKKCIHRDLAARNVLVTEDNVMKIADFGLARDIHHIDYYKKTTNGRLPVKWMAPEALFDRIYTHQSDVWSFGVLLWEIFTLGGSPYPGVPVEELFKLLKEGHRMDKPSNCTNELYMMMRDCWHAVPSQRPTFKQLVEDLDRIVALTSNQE

Cc1ccccc1C(=O)c1c[nH]c2nccc(-c3cccc(/C=C/C(=O)O)c3)c12 [Compound P-0094]
≤ 10 µM: Ret | Btk | Stk6 | Gsk3β

S=C(NCc1ccccn1)NCc1c[nH]c2ncccc12 [Compound P-0169]
≤ 10 µM: Kdr | Stk6 | Gsk3β | Abl

Cc1ccc(-c2c(C)[nH]c3ncccc23)s1 [Compound P-0207]
≤ 10 µM: Stk6 | Gsk3β

CCS(=O)(=O)Nc1ccc(F)c(C(=O)c2c[nH]c3ncc(-c4cccnc4)cc23)c1F [Compound P-0728, N-[2,4-difluoro-3-(5-pyridin-3-yl-1H-pyrrolo[2,3-b]pyridine-3-carbonyl)-phenyl]-ethanesulfonamide]
≤ 10 µM: B-Raf V600E | Jnk1 | Ret | Pyk2 | B-Raf | FGFR1 | MAP4K4 | c-Raf-1 | Gsk3β

O=C(c1c(F)ccc(NS(=O)(=O)c2ccccc2)c1F)c1c[nH]c2ncc(F)cc12 [Compound P-0902, N-[2,4-Difluoro-3-(5-fluoro-1H-pyrrolo[2,3-b]pyridine-3-carbonyl)-phenyl]-benzenesulfonamide]
≤ 10 µM: B-Raf V600E | B-Raf | FGFR1 | MAP4K4 | c-Raf-1 | Gsk3β

O=C(c1c(F)ccc(NS(=O)(=O)c2ccccc2)c1F)c1c[nH]c2ncccc12 [Compound P-0913, N-[2,4-Difluoro-3-(1H-pyrrolo[2,3-b]pyridine-3-carbonyl)-phenyl]-benzenesulfonamide]
≤ 10 µM: B-Raf V600E | B-Raf | FGFR1 | Fms | MAP4K4 | c-Raf-1 | Gsk3β | Kit

CC(=O)Nc1ccc(F)c(C(=O)c2c[nH]c3ncc(-c4cccnc4)cc23)c1F [Compound P-1002, N-[2,4-Difluoro-3-(5-pyridin-3-yl-1H-pyrrolo[2,3-b]pyridine-3-carbonyl)-phenyl]-acetamide]
not listed: Ret | Btk | Stk6 | Kdr | Abl | B-Raf | MAP4K4 | Src
≤ 10 µM: all other assays above

CCCS(=O)(=O)Nc1ccc(F)c(C(=O)c2c[nH]c3ncc(OCC)cc23)c1F [Compound P-1252, Propane-1-sulfonic acid [3-(5-ethoxy-1H-pyrrolo[2,3-b]pyridine-3-carbonyl)-2,4-difluoro-phenyl]-amide]
≤ 10 µM: B-Raf V600E | Src | B-Raf | FGFR1 | Fms | MAP4K4 | Gsk3β | Kit

CN(C)c1cccc(Nc2ccc3cc[nH]c3n2)c1 [Compound P-1372, N,N-Dimethyl-N′-(1H-pyrrolo[2,3-b]pyridin-6-yl)-benzene-1,3-diamine]
≤ 10 µM: Pyk2 | Jnk3 | Fms | MAP4K4 | Gsk3β | Flt1 | Kit
